According to paper PMC11062899, “De novo development of small cyclic peptides that are orally bioavailable” (Nature Chemical Biology, 2023):
“And” between values parts separate entries of the source, which are not always exact repeats. Equal values may be shown once. Read-outs that look alike come from different tables or passages of the source.

Legend:
rat α-thrombin = molecular target: T1, rat α-thrombin (Rattus norvegicus, UniProt P18292); assay: Protease inhibition, Ki for rat α-thrombin (fluorogenic substrate Z-Gly-Gly-Arg-AMC); assay type: biochemical; conditions: rat alpha thrombin; for Slope normalized to DMSO (proteolytic substrate cleavage over time): replicates R1-R3
T1 construct: rat α-thrombin (Molecular Innovations) were used at final concentrations of 2 nM and 3 nM; purchased Molecular Innovations
Method in brief: (§1)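 Ki derived through Cheng–Prusoff from IC50s (four-parameter logistic fit) against activity of peptide-free controls. Product fluorescence was read every 3 min over 30 min at 25 °C, substrate Z-Gly-Gly-Arg-AMC at 50 μM. Enzyme was 2 nM human or 3 nM rat α-thrombin, pH 7.4 buffer.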

[1] = Metabolic stability in rat liver microsomes (RLMs); conditions: for microsomal CLint / half-life: rat
[2] = Passive artificial membrane permeability (PAMPA)
porcine pancreatin = assay: Peptide stability in simulated intestinal fluid (SIF); assay type: in vitro ADME; conditions: after 8 h vs 0 h (TIC)
Method in brief: (§2)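 Peptide from a 1 mM DMSO stock was added to fluid pre-warmed at 37 °C. SGF was pH 1.2 NaCl with porcine pepsin (0.32 g per 100 ml), and SIF was pH 6.8 potassium phosphate with porcine pancreatin (1 g per 100 ml). Supernatant peptide was quantified by LC–MS, with residual expressed as T1/T0.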

[3] = as above; assay type: in vitro ADME, porcine; conditions: simulated gi fluid; 8 h, 37 °C, pH 6.8; read-out: Proteolytic stability: SIF (8 h) % remaining
Method in brief: as §2

human α-thrombin = human α-thrombin (Homo sapiens, UniProt P00734); assay: Protease inhibition, Ki for human α-thrombin (fluorogenic substrate Z-Gly-Gly-Arg-AMC); assay type: biochemical; conditions: human alpha thrombin; for Slope normalized to DMSO (proteolytic substrate cleavage over time): replicates R1-R3
Method in brief: as §1

Structure (SMILES): O=C1C[C@H]2CCCN2C(=O)[C@H](Cc2ccccc2)NC(=O)[C@@H](NC(=O)c2ccc(Cl)s2)CCSC/C=C/CSCCN1 [compound 34]
- Ki (rat α-thrombin; average of R1-R3, read-out: Ki Average, rat alpha thrombin inhibition): 6.1 nM
- Slope normalized to DMSO (proteolytic substrate cleavage over time) (rat α-thrombin; peptide 1.02E-03 uM): 78.7 and 76.8 and 72.0
- Slope normalized to DMSO (proteolytic substrate cleavage over time) (rat α-thrombin; peptide 1.04E+00 uM): 7.3 and 7.7 and 6.8
- Slope normalized to DMSO (proteolytic substrate cleavage over time) (rat α-thrombin; peptide 1.27E-04 uM): 95.1 and 95.2 and 91.8
- Slope normalized to DMSO (proteolytic substrate cleavage over time) (rat α-thrombin; peptide 1.30E-01 uM): 20.8 and 21.8 and 17.8
- Slope normalized to DMSO (proteolytic substrate cleavage over time) (rat α-thrombin; peptide 1.59E-05 uM): 100.8 and 100.5 and 95.6
- Slope normalized to DMSO (proteolytic substrate cleavage over time) (rat α-thrombin; peptide 1.63E-02 uM): 48.6 and 45.6 and 41.9
- Slope normalized to DMSO (proteolytic substrate cleavage over time) (rat α-thrombin; peptide 1.67E+01 uM): 5.6 and 6.1 and 3.4
- Slope normalized to DMSO (proteolytic substrate cleavage over time) (rat α-thrombin; peptide 2.03E-03 uM): 77.5 and 75.6 and 71.7
- Slope normalized to DMSO (proteolytic substrate cleavage over time) (rat α-thrombin; peptide 2.08E+00 uM): 5.5 and 7.4 and 5.0
- Slope normalized to DMSO (proteolytic substrate cleavage over time) (rat α-thrombin; peptide 2.54E-04 uM): 90.6 and 89.3 and 85.2
- Slope normalized to DMSO (proteolytic substrate cleavage over time) (rat α-thrombin; peptide 2.60E-01 uM): 14.5 and 13.9 and 10.9
- Slope normalized to DMSO (proteolytic substrate cleavage over time) (rat α-thrombin; peptide 3.18E-05 uM): 98.5 and 99.4 and 94.0
- Slope normalized to DMSO (proteolytic substrate cleavage over time) (rat α-thrombin; peptide 3.26E-02 uM): 34.9 (2×) and 30.9
- Slope normalized to DMSO (proteolytic substrate cleavage over time) (rat α-thrombin; peptide 3.33E+01 uM): 5.6 and 5.2 and 4.6
- Slope normalized to DMSO (proteolytic substrate cleavage over time) (rat α-thrombin; peptide 4.07E-03 uM): 74.5 and 73.2 and 65.7
- Slope normalized to DMSO (proteolytic substrate cleavage over time) (rat α-thrombin; peptide 4.17E+00 uM): 6.0 and 6.5 and 4.6
- Slope normalized to DMSO (proteolytic substrate cleavage over time) (rat α-thrombin; peptide 5.09E-04 uM): 86.5 and 86.6 and 79.6
- Slope normalized to DMSO (proteolytic substrate cleavage over time) (rat α-thrombin; peptide 5.21E-01 uM): 8.9 and 10.7 and 8.6
- Slope normalized to DMSO (proteolytic substrate cleavage over time) (rat α-thrombin; peptide 6.36E-05 uM): 95.0 and 93.8 and 92.2
- Slope normalized to DMSO (proteolytic substrate cleavage over time) (rat α-thrombin; peptide 6.51E-02 uM): 29.2 and 28.9 and 23.7
- Slope normalized to DMSO (proteolytic substrate cleavage over time) (rat α-thrombin; peptide 6.67E+01 uM): 6.0 and 6.3 and 4.0
- Slope normalized to DMSO (proteolytic substrate cleavage over time) (rat α-thrombin; peptide 7.95E-06 uM): 103.6 and 102.5 and 98.1
- Slope normalized to DMSO (proteolytic substrate cleavage over time) (rat α-thrombin; peptide 8.14E-03 uM): 62.2 and 57.8 and 53.3
- Slope normalized to DMSO (proteolytic substrate cleavage over time) (rat α-thrombin; peptide 8.33E+00 uM): 4.9 and 6.7 and 5.0
- IC50 (rat α-thrombin; single replicates R1-R3, read-out: IC50, rat alpha thrombin inhibition): 13 nM and 10.8 nM and 9.19 nM
- Ki (rat α-thrombin; single replicates R1-R3, read-out: Ki, rat alpha thrombin inhibition): 7.18 nM and 6.01 nM (2×) and 5.09 nM (2×) and 7.19 nM
- TIC value of compound, 0 min, R1 ([1]; rat liver microsomes, 0 min, replicate R1): 12429096
- TIC value of compound, 0 min, R3 ([1]; rat liver microsomes, 0 min, replicate R3): 11063826
- TIC value of compound, 5 min, R1 ([1]; rat liver microsomes, 5 min, replicate R1): 11351623
- TIC value of compound, 5 min, R3 ([1]; rat liver microsomes, 5 min, replicate R3): 10806046
- TIC value of compound, 15 min, R1 ([1]; rat liver microsomes, 15 min, replicate R1): 7245055
- TIC value of compound, 15 min, R3 ([1]; rat liver microsomes, 15 min, replicate R3): 6630237
- TIC value of compound, 30 min, R1 ([1]; rat liver microsomes, 30 min, replicate R1): 4320756
- TIC value of compound, 30 min, R3 ([1]; rat liver microsomes, 30 min, replicate R3): 3830533
- TIC value of compound, 60 min, R1 ([1]; rat liver microsomes, 60 min, replicate R1): 1228797
- TIC value of compound, 60 min, R3 ([1]; rat liver microsomes, 60 min, replicate R3): 1213522
- microsomal CLint ([1]; CL (ul/min/mg protein), R1, RLM CL, replicate R1, unrounded): 69.7 µL/min/mg
- microsomal CLint ([1]; CL (ul/min/mg protein), R2, RLM CL, replicate R2, unrounded): 85.6 µL/min/mg
- microsomal CLint ([1]; CL (ul/min/mg protein), R3, RLM CL, replicate R3, unrounded): 66.4 µL/min/mg
- half-life ([1]; Half Life (min), R1, RLM metabolic stability, replicate R1): 19.9 min
- half-life ([1]; Half Life (min), R2, RLM metabolic stability, replicate R2): 16.2 min
- half-life ([1]; Half Life (min), R3, RLM metabolic stability, replicate R3): 20.9 min
- half-life ([1]; microsomes, Metabolic stability: Half life T1/2 (min), RLMs, mean and SD, three measurements): 19 ± 2 min
- microsomal CLint ([1]; microsomes, Metabolic stability: RLM CL (ul/min/mg), RLMs, mean and SD, three measurements): 74 ± 8 µL/min/mg
- microsomal CLint ([1]; microsomes, RLM CL, Average, average of R1-R3): 73.9 µL/min/mg
- microsomal CLint ([1]; microsomes, RLM CL, R1, RLM CL, replicate R1, summary block): 69.7 µL/min/mg
- microsomal CLint ([1]; microsomes, RLM CL, R2, RLM CL, replicate R2, summary block): 85.6 µL/min/mg
- microsomal CLint ([1]; microsomes, RLM CL, R3, RLM CL, replicate R3, summary block): 66.4 µL/min/mg
- PAMPA permeability: % permeability ([2]; 50 μM, 12–18 h, acceptor concentration relative to equilibrium): 37 ± 1%
- Papp at 50 μM ([2]; PAMPA, pH 7.4): 4.57 ×10⁻⁶ cm/s
- Permeability% Average ([2]; top well sample vs theoretical equilibrium sample (TIC), average of R1-R3): 37.0%
- Permeability% ([2]; top well sample vs theoretical equilibrium sample (TIC), single replicates R1-R3): 36.96% and 38.34% and 35.81%
- SIF stability, Residual peptide Average (porcine pancreatin; average of R1-R3): 62.79
- SIF stability, Residual peptide (porcine pancreatin; single replicates R1-R3): 66.10 and 55.58 and 66.70
- remaining at 8 h [3]: 63 ± 6%
- Ki (human α-thrombin; average of R1-R3, read-out: Ki Average, human alpha thrombin inhibition): 21 nM
- Slope normalized to DMSO (proteolytic substrate cleavage over time) (human α-thrombin; peptide 1.02E-03 uM): 77.8 and 82.6 and 87.7
- Slope normalized to DMSO (proteolytic substrate cleavage over time) (human α-thrombin; peptide 1.27E-04 uM): 85.2 and 86.3 and 97.5
- Slope normalized to DMSO (proteolytic substrate cleavage over time) (human α-thrombin; peptide 1.30E-01 uM): 23.7 and 29.7 and 31.1
- Slope normalized to DMSO (proteolytic substrate cleavage over time) (human α-thrombin; peptide 1.59E-05 uM): 99.4 and 93.2 and 99.6
- Slope normalized to DMSO (proteolytic substrate cleavage over time) (human α-thrombin; peptide 1.63E-02 uM): 62.9 (2×) and 53.3
- Slope normalized to DMSO (proteolytic substrate cleavage over time) (human α-thrombin; peptide 2.03E-03 uM): 91.1 and 82.2 and 86.6
- Slope normalized to DMSO (proteolytic substrate cleavage over time) (human α-thrombin; peptide 2.54E-04 uM): 95.6 and 96.7 and 91.7
- Slope normalized to DMSO (proteolytic substrate cleavage over time) (human α-thrombin; peptide 2.60E-01 uM): 14.6 and 25.5 and 20.4
- Slope normalized to DMSO (proteolytic substrate cleavage over time) (human α-thrombin; peptide 3.18E-05 uM): 103.9 and 99.1 and 101.2
- Slope normalized to DMSO (proteolytic substrate cleavage over time) (human α-thrombin; peptide 3.26E-02 uM): 46.1 and 40.2 and 49.8
- Slope normalized to DMSO (proteolytic substrate cleavage over time) (human α-thrombin; peptide 4.07E-03 uM): 82.6 and 77.6 and 83.2
- Slope normalized to DMSO (proteolytic substrate cleavage over time) (human α-thrombin; peptide 5.09E-04 uM): 88.5 and 86.7 and 91.9
- Slope normalized to DMSO (proteolytic substrate cleavage over time) (human α-thrombin; peptide 5.21E-01 uM): 17.1 and 15.0
- Slope normalized to DMSO (proteolytic substrate cleavage over time) (human α-thrombin; peptide 6.36E-05 uM): 96.5 and 103.5 and 97.9
- Slope normalized to DMSO (proteolytic substrate cleavage over time) (human α-thrombin; peptide 6.51E-02 uM): 35.9 and 37.8 and 41.0
- Slope normalized to DMSO (proteolytic substrate cleavage over time) (human α-thrombin; peptide 7.95E-06 uM): 100.7 and 95.5 and 98.4
- Slope normalized to DMSO (proteolytic substrate cleavage over time) (human α-thrombin; peptide 8.14E-03 uM): 73.2 and 59.3 and 66.6
- IC50 (human α-thrombin; single replicates R1-R3, read-out: IC50, human alpha thrombin inhibition): 30.2 nM and 20 nM and 31.5 nM
- Ki (human α-thrombin; single replicates R1-R3, read-out: Ki, human alpha thrombin inhibition): 23.3 nM (2×) and 15.4 nM (2×) and 24.2 nM (2×)
